The results in this text go back to patent publication US9067937B2 (priority 2012, dated 2015).

One assay deals with 22Rv1 cells. The assay can be described thus: Cell-based assay, anti-proliferative activity (Cell Counting Kit-8, 72 hours). Further details: species or system human. The method, boiled down: (§1)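 Cells seeded at 2,000–3,000 cells/well and exposed to candidate MELK inhibitors for 72 hours; growth measured with Cell Counting Kit-8. IC50 values calculated from the growth read-out.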
On the technique in general: Tetrazolium dyes change colour on reduction, which living cells bring about.

A further assay has as its system A549 cells. The assay is described as above. Further details: species or system human. The procedure, abridged: as §1
Another assay relates to DU4475 cells. Described as above. Further details: species or system human. The procedure, abridged:
as §1

Another assay concerns T47D cells. The description is as above. Further details: species or system human. The method, boiled down: as §1
In the next assay the test system is HT1197 cells. In words: Cell-based assay, anti-proliferative activity, MELK-negative control (Cell Counting Kit-8, 72 hours). Further details: species or system human. How it is done:
100 micro-L of cell suspension was seeded onto 96-well microtiter plate (ViewPlate-96FTC, PerkinElmer). The initial cell concentration of 22Rv1, T47D, A549, DU4475, and HT1197 were 3,000 cells/well, 2,000 cells/well and 2,500 cells/well, respectively. Cellular growth was determined using Cell Counting Kit-8 (DOJINDO) at 72 hours after the exposure of the candidate inhibitors. […] Accurate IC50 values were calculated as described previously.

The next assay relates to MDA-MB-231 xenografts. In words: Xenograft model antitumor assay. Further details: species or system mice. The note with it: mouse, in vivo; dihydrochloride.
In another assay the test system is DU145 xenografts. In words: Xenograft model antitumor assay. Further details: species or system mice. The note with it: mouse, in vivo.
The next assay relates to MIAPaCa-2 xenografts. The assay can be described thus: Xenograft model antitumor assay. The note with it: mouse, in vivo. Further details: species or system mice.
The next assay deals with PC-14 xenografts. The assay can be described thus: Xenograft model antitumor assay (MELK-negative). Type of assay: in vivo, mice. The note with it: PC-14 (MELK hardly detectable), 10 mg/kg oral once a day, 14 days.
The target of another assay is MELK (Homo sapiens, UniProt Q14680). In words: Kinase assay (IMAP fluorescence polarization, FITC-labeled histone H3 peptide). The class given is biochemical. The note with it: 50 micro-M ATP. The method, boiled down: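 Kinase (0.8 ng/μL) reacted with 100 nM FITC-histone H3 peptide and 50 μM ATP in 20 mM HEPES, 0.3 mM MgCl2, 2 mM DTT, 0.01% Tween-20, pH 7.4, for 1 hour at room temperature. Phosphorylation read by IMAP fluorescence polarization after adding binding solution; IC50 from four-parameter fit.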
Chain of MELK (Q14680 whole entry, looked up): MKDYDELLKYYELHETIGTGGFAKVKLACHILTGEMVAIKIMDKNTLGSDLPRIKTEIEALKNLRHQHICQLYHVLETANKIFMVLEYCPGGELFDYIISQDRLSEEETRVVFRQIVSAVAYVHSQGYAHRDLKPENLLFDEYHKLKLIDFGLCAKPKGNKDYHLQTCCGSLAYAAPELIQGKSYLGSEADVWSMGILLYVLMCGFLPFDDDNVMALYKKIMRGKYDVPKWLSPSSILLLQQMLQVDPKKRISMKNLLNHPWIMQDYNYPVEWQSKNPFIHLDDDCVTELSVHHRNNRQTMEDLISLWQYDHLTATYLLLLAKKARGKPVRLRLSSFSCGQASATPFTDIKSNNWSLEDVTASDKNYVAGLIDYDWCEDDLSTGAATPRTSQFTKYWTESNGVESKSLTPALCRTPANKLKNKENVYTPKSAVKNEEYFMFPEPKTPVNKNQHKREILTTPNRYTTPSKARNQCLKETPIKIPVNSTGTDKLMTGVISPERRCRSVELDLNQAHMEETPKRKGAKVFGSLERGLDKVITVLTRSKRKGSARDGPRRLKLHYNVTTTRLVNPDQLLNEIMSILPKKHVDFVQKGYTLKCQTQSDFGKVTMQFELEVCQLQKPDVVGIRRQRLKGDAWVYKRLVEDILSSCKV
In general terms: Polarisation of emitted light reports the rotation of a fluorescent probe.

Where [1] appears, read: Homo sapiens, 22Rv1, 72 h, read-out: IC50 (μM) (22Rvl).
Setting [2] is: Homo sapiens, A549, 72 h, read-out: IC50 (μM) (A549).
Setting [3] is: Homo sapiens, DU-4475, 72 h, read-out: IC50 (μM) (DU4475).
The mark [4] stands for this setting: Homo sapiens, T47D, 72 h, read-out: IC50 (μM) (T47D).
Setting [5] is: Homo sapiens, HT1197, 72 h, read-out: IC50 (μM) (HTll97).
Setting [6] is: 22Rv1 cells, 72 hours, read-out: IC50 (μM) (22Rvl).
The mark [7] stands for this setting: A549 cells, 72 hours, read-out: IC50 (μM) (A549).
[8] abbreviates: DU4475 cells, 72 hours, read-out: IC50 (μM) (DU4475).
Where [9] appears, read: T47D cells, 72 hours, read-out: IC50 (μM) (T47D).
[10] abbreviates: HT1197 cells (MELK-negative control), 72 hours, read-out: IC50 (μM) (HTll97).

Values joined by “and” are separate entries in the source; they are usually repeats but may differ in a detail not shown here. Equal values may be shown once. Where a name gives a salt, the structure may show the parent alone. Read-outs that look alike come from different tables or passages of the source.

For orientation: IC50 means the concentration needed to halve the response being measured. In the case of `CC(=O)c1cnc2ccc(-c3cc(Cl)c(O)c(Cl)c3)nc2c1N[C@H]1CC[C@H](CN(C)C)CC1` [Example 6, 1-{6-(3,5-Dichloro-4-hydroxyphenyl)-4-({trans-4-[(dimethylamino)methyl]cyclohexyl}amino)-1,5-naphthyridin-3-yl}ethanone dihydrochloride], the IC50 is 0.0052 µM with 22Rv1 cells (setting [1]); 0.006 µM with 22Rv1 cells (Homo sapiens, 22Rv1, read-out: IC50, in vitro anti-proliferative assay); 0.0089 µM in the assay on A549 cells (setting [2]); 0.0067 µM in the assay with A549 cells (Homo sapiens, A549, read-out: IC50, in vitro anti-proliferative assay); 0.0033 µM in the assay on DU4475 cells (setting [3]); 0.0023 µM in the assay on DU4475 cells (Homo sapiens, DU-4475, read-out: IC50, in vitro anti-proliferative assay). In addition, the IC50 in the assay on T47D cells (setting [4]) came out at 0.0053 µM; in the assay on T47D cells (Homo sapiens, T47D, read-out: IC50, in vitro anti-proliferative assay), 0.0043 µM; with HT1197 cells (setting [5]), 0.12 µM; with HT1197 cells (Homo sapiens, HT1197, read-out: IC50, in vitro anti-proliferative assay), 0.097 µM. Moreover, the “Tumor growth inhibition (TGI)” value in the assay with MDA-MB-231 xenografts was 73% and 72%; with DU145 xenografts, 106%; with MIAPaCa-2 xenografts it was 87%. Besides, the “Tumor growth suppressive effect” value in the assay with PC-14 xenografts is listed as “no tumor growth suppressive effect”.

In the case of `CCC(=O)c1cnc2ccc(-c3cc(Cl)c(O)c(Cl)c3)nc2c1Nc1ccc(N2CCC[C@@H](N)C2)nc1` [Example 214, (R)-1-(4-((6-(3-aminopiperidin-1-yl)pyridin-3-yl)amino)-6-(3,5-dichloro-4-hydroxyphenyl)-1,5-naphthyridin-3-yl)propan-1-one trihydrochloride], the IC50 on MELK came to 0.0013 µM; in the assay on 22Rv1 cells (setting [1]) it was 0.0059 µM; in the assay with A549 cells (setting [2]), 0.013 µM; with DU4475 cells (setting [3]), 0.004 µM; in the assay with T47D cells (setting [4]) it was 0.0028 µM; with HT1197 cells (setting [5]) it was 0.34 µM.

On to “(R)-1-(4-{[6-(3-aminopiperidin-1- yl)pyridin-3-yl]amino}-6-(3,5- dichloro-4-hydroxyphenyl)-1,5- naphthyridin-3-yl)-2-methylpropan-1- one trihydrochloride [Example 215]”, for which the IC50 against MELK amounted to 0.0065 µM; in the assay on 22Rv1 cells (setting [6]), 0.032 µM; in the assay with A549 cells (setting [7]), 0.083 µM; in the assay with DU4475 cells (setting [8]) it was 0.014 µM; in the assay with T47D cells (setting [9]), 0.016 µM; in the assay with HT1197 cells (setting [10]) it was 1.7 µM.

As to “(S)-(4-{[6-(3-aminopiperidin-1- yl)pyridin-3-yl]amino}-6-(3-chloro-5- fluoro-4-hydroxyphenyl)-1,5- naphthyridin-3- yl)(cyclobutyl)methanone [Example 213]”, the IC50 stood at 0.0011 µM on MELK; 0.0071 µM in the assay with 22Rv1 cells (setting [6]); 0.029 µM in the assay on A549 cells (setting [7]); 0.003 µM with DU4475 cells (setting [8]); 0.0043 µM with T47D cells (setting [9]); 1.7 µM in the assay on HT1197 cells (setting [10]).
